ChEMBL document CHEMBL5214940, “New potent ciprofloxacin-uracil conjugates as DNA gyrase and topoisomerase IV inhibitors against methicillin-resistant Staphylococcus aureus” (Bioorg Med Chem, 2022)
In brackets after ≈: the same amount, converted by molar mass.

How the values were obtained:
Staphylococcus aureus [1] = assay: Antibacterial activity against methicillin-resistant Staphylococcus aureus AUMC 261 assessed as zone of inhibition by cup-plate agar diffusion method; type: functional
Klebsiella pneumoniae = assay: Antibacterial activity against Klebsiella pneumoniae ATCC10031 assessed as zone of inhibition by cup-plate agar diffusion method; type: functional
Escherichia coli = assay: Antibacterial activity against […] assessed as zone of inhibition by cup-plate agar diffusion method; type: functional
[2] = Inhibition of Escherichia coli topoisomerase 4 mediated relaxation of supercoiled pHOT1 DNA at expense of ATP hydrolysis by ethidium bromide staining based agarose gel electrophoresis
Pseudomonas aeruginosa = assay: Antibacterial activity against Pseudomonas aeruginosa ATCC27853 assessed as zone of inhibition by cup-plate agar diffusion method; type: functional
DNA gyrase = DNA gyrase (Escherichia coli, UniProt P0AES4+P0AES6); assay: Inhibition of Escherichia coli DNA gyrase supercoiling activity using […] as substrate incubated for 15 to 30 mins by agarose gel electrophoresis analysis; type: protein-complex assay
Staphylococcus aureus [3] = assay: Antibacterial activity against Staphylococcus aureus ATCC6538 assessed as zone of inhibition by cup-plate agar diffusion method; type: functional

SMILES	MIC (Staphylococcus aureus [1]) [µM]	MIC (Klebsiella pneumoniae) [µM]	MIC (Escherichia coli) [µM]	IC50 [2] [µM]	MIC (Pseudomonas aeruginosa) [µM]	IC50 (DNA gyrase) [µM]	MIC (Staphylococcus aureus [3]) [µM]
O=C(CN1CCN(c2cc3c(cc2F)c(=O)c(C(=O)O)cn3C2CC2)CC1)Nc1cc(=O)[nH]c(=O)[nH]1	0.031 (≈ 0.0155 µg/mL)	1.57 (≈ 0.783 µg/mL)	0.78 (≈ 0.389 µg/mL)	4.36	> 100	1.72	1.25 (≈ 0.623 µg/mL)
CSc1nc(NC(=O)CN2CCN(c3cc4c(cc3F)c(=O)c(C(=O)O)cn4C3CC3)CC2)cc(=O)[nH]1	0.046 (≈ 0.0243 µg/mL)	5.91 (≈ 3.12 µg/mL)	2.95 (≈ 1.56 µg/mL)	7.77	> 100	5.72	2.37 (≈ 1.25 µg/mL)
CCCn1c(=O)cc(NC(=O)CN2CCN(c3cc4c(cc3F)c(=O)c(C(=O)O)cn4C3CC3)CC2)[nH]c1=O		11.6 (≈ 6.25 µg/mL)	11.6 (≈ 6.25 µg/mL)		> 100		18.5 (≈ 10 µg/mL)
O=C(O)c1cn(C2CC2)c2cc(N3CCNCC3)c(F)cc2c1=O [CIPROFLOXACIN]	0.57 (≈ 0.189 µg/mL)	1.21 (≈ 0.401 µg/mL)	0.6 (≈ 0.199 µg/mL)	8.16	0.6 (≈ 0.199 µg/mL)		7.58 (≈ 2.51 µg/mL)
COc1ccc(NC(=O)CSc2nc(NC(=O)CN3CCN(c4cc5c(cc4F)c(=O)c(C(=O)O)cn5C4CC4)CC3)cc(=O)[nH]2)cc1		18.5 (≈ 12.5 µg/mL)	4.61 (≈ 3.12 µg/mL)		> 100		> 100
CCCCSc1nc(NC(=O)CN2CCN(c3cc4c(cc3F)c(=O)c(C(=O)O)cn4C3CC3)CC2)cc(=O)[nH]1		5.47 (≈ 3.12 µg/mL)	2.73 (≈ 1.56 µg/mL)		> 100		17.5 (≈ 10 µg/mL)
O=C(CSc1nc(NC(=O)CN2CCN(c3cc4c(cc3F)c(=O)c(C(=O)O)cn4C3CC3)CC2)cc(=O)[nH]1)Nc1ccc(Cl)cc1	7.22 (≈ 4.93 µg/mL)	4.58 (≈ 3.12 µg/mL)	18.4 (≈ 12.5 µg/mL)		> 100		14.7 (≈ 10 µg/mL)
COc1ccc(/C=C2\C(=N)N=C(SCC(=O)N3CCN(c4cc5c(cc4F)c(=O)c(C(=O)O)cn5C4CC4)CC3)NC2=O)cc1	2.43 (≈ 1.54 µg/mL)	2.47 (≈ 1.56 µg/mL)	4.94 (≈ 3.13 µg/mL)		> 100		15.8 (≈ 10 µg/mL)
N=C1N=C(SCC(=O)N2CCN(c3cc4c(cc3F)c(=O)c(C(=O)O)cn4C3CC3)CC2)NC(=O)/C1=C/c1ccc(Cl)cc1		4.91 (≈ 3.13 µg/mL)	4.91 (≈ 3.13 µg/mL)		> 100		> 100
Cn1c(NC(=O)CN2CCN(c3cc4c(cc3F)c(=O)c(C(=O)O)cn4C3CC3)CC2)cc(=O)n(C)c1=O		2.97 (≈ 1.56 µg/mL)	1.48 (≈ 0.779 µg/mL)		2.97 (≈ 1.56 µg/mL)		> 100
CCCSc1nc(NC(=O)CN2CCN(c3cc4c(cc3F)c(=O)c(C(=O)O)cn4C3CC3)CC2)cc(=O)[nH]1		11.2 (≈ 6.26 µg/mL)	5.61 (≈ 3.12 µg/mL)		> 100		18 (≈ 10 µg/mL)
COc1cc(/C=C2\C(=N)N=C(SCC(=O)N3CCN(c4cc5c(cc4F)c(=O)c(C(=O)O)cn5C4CC4)CC3)NC2=O)cc(OC)c1OC	0.096 (≈ 0.0665 µg/mL)	9.03 (≈ 6.26 µg/mL)	4.51 (≈ 3.12 µg/mL)		> 100		4.25 (≈ 2.94 µg/mL)
N=C1N=C(SCC(=O)N2CCN(c3cc4c(cc3F)c(=O)c(C(=O)O)cn4C3CC3)CC2)NC(=O)/C1=C/c1ccc(F)cc1		20.2 (≈ 12.5 µg/mL)	5.03 (≈ 3.12 µg/mL)		> 100		> 100
O=C(CSc1nc(NC(=O)CN2CCN(c3cc4c(cc3F)c(=O)c(C(=O)O)cn4C3CC3)CC2)cc(=O)[nH]1)Nc1ccccc1		19.3 (≈ 12.5 µg/mL)	9.66 (≈ 6.26 µg/mL)		> 100		> 100
Cn1c(=O)cc(NC(=O)CN2CCN(c3cc4c(cc3F)c(=O)c(C(=O)O)cn4C3CC3)CC2)[nH]c1=O		6.1 (≈ 3.13 µg/mL)	3.05 (≈ 1.56 µg/mL)		> 100		> 100
COc1ccc(/C=C2\C(=N)N=C(SCC(=O)N3CCN(c4cc5c(cc4F)c(=O)c(C(=O)O)cn5C4CC4)CC3)NC2=O)cc1OC		4.71 (≈ 3.12 µg/mL)	4.71 (≈ 3.12 µg/mL)		2.97 (≈ 1.97 µg/mL)		> 100
C=CCSc1nc(NC(=O)CN2CCN(c3cc4c(cc3F)c(=O)c(C(=O)O)cn4C3CC3)CC2)cc(=O)[nH]1		22.6 (≈ 12.5 µg/mL)	11.3 (≈ 6.26 µg/mL)		> 100		18.1 (≈ 10 µg/mL)
N=C1N=C(SCC(=O)N2CCN(c3cc4c(cc3F)c(=O)c(C(=O)O)cn4C3CC3)CC2)NC(=O)/C1=C/c1ccc(Br)cc1		9.19 (≈ 6.26 µg/mL)	4.59 (≈ 3.13 µg/mL)		> 100		> 100
COc1cc(/C=C2\C(=N)N=C(SCC(=O)N3CCN(c4cc5c(cc4F)c(=O)c(C(=O)O)cn5C4CC4)CC3)NC2=O)ccc1O	1.57 (≈ 1.02 µg/mL)	4.81 (≈ 3.12 µg/mL)	2.41 (≈ 1.56 µg/mL)		> 100		7.58 (≈ 4.92 µg/mL)
N=C1N=C(SCC(=O)N2CCN(c3cc4c(cc3F)c(=O)c(C(=O)O)cn4C3CC3)CC2)NC(=O)/C1=C/c1ccccc1		5.18 (≈ 3.12 µg/mL)	1.3 (≈ 0.783 µg/mL)		2.59 (≈ 1.56 µg/mL)		> 100
Cc1ccc(NC(=O)CSc2nc(NC(=O)CN3CCN(c4cc5c(cc4F)c(=O)c(C(=O)O)cn5C4CC4)CC3)cc(=O)[nH]2)cc1		37.8 (≈ 25 µg/mL)	18.9 (≈ 12.5 µg/mL)		> 100		> 100
